Measured values as given in ChEMBL document CHEMBL3627688, “Structure-based hybridization, synthesis and biological evaluation of novel tetracyclic heterocyclic azathioxanthone analogues as potential antitumor agents” (Eur J Med Chem, 2015).
The source made the active and inactive calls. The calls are words filed in the database; no cut-off is given here.

What was measured:
[1] = target: DNA topoisomerase 1 (Homo sapiens) (UniProt P11387); test: Inhibition of human recombinant topoisomerase 1 assessed as blocking of supercoiled pHOT DNA relaxation at 50 uM incubated for 25 mins at 37 degC by ethidium bromide staining based agarose gel electrophoresis
Sequence of DNA topoisomerase 1 (Homo sapiens) (P11387 whole entry): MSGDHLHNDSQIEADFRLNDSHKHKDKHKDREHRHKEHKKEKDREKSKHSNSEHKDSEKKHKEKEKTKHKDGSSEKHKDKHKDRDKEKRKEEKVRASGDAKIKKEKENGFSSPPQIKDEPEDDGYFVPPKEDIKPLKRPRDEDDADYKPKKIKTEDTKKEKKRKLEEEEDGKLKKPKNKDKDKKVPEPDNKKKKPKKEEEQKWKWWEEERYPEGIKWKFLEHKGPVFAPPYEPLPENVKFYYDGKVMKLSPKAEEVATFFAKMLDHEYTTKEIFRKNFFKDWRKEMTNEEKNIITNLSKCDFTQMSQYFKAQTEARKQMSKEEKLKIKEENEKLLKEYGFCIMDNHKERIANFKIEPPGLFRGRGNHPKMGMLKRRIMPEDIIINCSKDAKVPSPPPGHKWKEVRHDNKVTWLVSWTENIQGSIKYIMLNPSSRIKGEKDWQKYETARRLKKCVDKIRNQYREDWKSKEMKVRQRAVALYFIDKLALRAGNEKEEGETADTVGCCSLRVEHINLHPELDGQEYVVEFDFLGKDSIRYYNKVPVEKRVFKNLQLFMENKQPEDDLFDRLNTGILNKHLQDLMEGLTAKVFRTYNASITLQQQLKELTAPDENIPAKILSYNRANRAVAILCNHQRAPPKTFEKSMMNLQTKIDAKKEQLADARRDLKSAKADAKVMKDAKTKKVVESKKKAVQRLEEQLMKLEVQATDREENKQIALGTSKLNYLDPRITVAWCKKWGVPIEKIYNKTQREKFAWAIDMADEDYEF

DU-145 = test: Antiproliferative activity against human DU145 cells assessed as cell viability incubated for 72 hrs by MTT assay; type: functional, cell-based; conditions: DU-145, 72 h
PC-3 = test: Antiproliferative activity against human PC3 cells assessed as cell viability incubated for 72 hrs by MTT assay; type: functional, cell-based; conditions: PC-3, 72 h
[2] = target: DNA topoisomerase 2-alpha (Homo sapiens) (UniProt P11388); test: Inhibition of human recombinant topoisomerase 2 alpha assessed as blocking of supercoiled pHOT DNA relaxation at 50 uM incubated for 45 mins at 37 degC by ethidium bromide staining based agarose gel electrophoresis
Sequence of DNA topoisomerase 2-alpha (Homo sapiens) (P11388 whole entry): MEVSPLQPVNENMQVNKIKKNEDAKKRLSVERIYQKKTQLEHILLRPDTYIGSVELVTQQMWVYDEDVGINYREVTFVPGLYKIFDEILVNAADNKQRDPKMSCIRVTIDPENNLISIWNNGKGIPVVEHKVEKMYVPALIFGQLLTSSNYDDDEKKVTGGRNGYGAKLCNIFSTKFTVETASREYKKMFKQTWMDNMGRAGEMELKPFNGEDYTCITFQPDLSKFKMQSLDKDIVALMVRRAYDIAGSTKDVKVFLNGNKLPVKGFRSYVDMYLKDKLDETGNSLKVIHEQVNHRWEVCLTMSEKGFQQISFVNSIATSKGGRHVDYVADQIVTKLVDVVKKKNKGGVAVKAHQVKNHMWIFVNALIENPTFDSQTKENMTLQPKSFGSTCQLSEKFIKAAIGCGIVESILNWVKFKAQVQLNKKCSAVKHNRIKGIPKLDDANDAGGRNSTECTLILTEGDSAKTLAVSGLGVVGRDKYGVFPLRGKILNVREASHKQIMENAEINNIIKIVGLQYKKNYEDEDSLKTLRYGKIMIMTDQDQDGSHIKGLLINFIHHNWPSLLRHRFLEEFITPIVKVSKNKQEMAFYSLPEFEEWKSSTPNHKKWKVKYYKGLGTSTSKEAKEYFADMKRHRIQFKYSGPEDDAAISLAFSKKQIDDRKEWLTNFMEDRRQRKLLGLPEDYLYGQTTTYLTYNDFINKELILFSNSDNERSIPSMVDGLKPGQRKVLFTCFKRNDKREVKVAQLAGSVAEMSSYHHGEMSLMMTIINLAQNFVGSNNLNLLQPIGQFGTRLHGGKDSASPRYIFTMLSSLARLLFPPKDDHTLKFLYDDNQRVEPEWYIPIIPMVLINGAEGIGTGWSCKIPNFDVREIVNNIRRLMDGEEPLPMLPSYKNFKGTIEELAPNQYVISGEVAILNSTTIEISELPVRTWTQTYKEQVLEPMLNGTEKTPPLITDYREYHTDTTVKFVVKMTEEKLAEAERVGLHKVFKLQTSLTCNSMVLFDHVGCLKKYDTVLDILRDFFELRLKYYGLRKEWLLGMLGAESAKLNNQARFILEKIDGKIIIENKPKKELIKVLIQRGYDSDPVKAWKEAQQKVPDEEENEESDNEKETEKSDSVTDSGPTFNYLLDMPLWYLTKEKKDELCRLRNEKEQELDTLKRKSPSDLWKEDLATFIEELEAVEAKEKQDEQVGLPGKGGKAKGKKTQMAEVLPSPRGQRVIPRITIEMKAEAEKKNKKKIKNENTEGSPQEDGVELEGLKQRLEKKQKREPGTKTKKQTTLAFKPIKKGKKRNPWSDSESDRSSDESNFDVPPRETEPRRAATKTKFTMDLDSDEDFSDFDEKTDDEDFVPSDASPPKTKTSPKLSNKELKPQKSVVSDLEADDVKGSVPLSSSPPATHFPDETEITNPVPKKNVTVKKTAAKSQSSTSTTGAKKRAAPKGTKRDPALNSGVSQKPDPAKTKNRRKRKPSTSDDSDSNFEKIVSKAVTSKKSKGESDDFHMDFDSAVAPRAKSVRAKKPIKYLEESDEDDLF

inhibition [1] | IC50 (DU-145) [µM] | IC50 (PC-3) [µM] | inhibition [2] | SMILES
Active | 9.02 | 6.36 |  | O=c1c2cc(Cl)ccc2sc2c(N3CCC(CCCC4CCNCC4)CC3)nc3ccccc3c12
 | > 15 | > 15 |  | O=c1c2cc(Cl)ccc2sc2c(N3CCC(Cc4ccccc4)CC3)nc3ccccc3c12
 | 13.4 | > 15 |  | O=c1c2cc(Cl)ccc2sc2c(N3CCCCC3)nc3ccccc3c12
 | > 15 | > 15 |  | O=c1c2cc(Cl)ccc2sc2c(N3CCCC3)nc3ccccc3c12
 | 0.12 |  |  | COc1cccc2c1C(=O)c1c(O)c3c(c(O)c1C2=O)C[C@@](O)(C(=O)CO)C[C@@H]3O[C@H]1C[C@H](N)[C@H](O)[C@H](C)O1 [DOXORUBICIN]
Active | 11.1 | 9.55 |  | O=c1c2cc(Cl)ccc2sc2c(N3CCC(O)CC3)nc3ccccc3c12
 | 0.4 | 4.33 | Active | COc1cc([C@@H]2c3cc4c(cc3[C@@H](O[C@@H]3O[C@@H]5CO[C@@H](C)O[C@H]5[C@H](O)[C@H]3O)[C@H]3COC(=O)[C@H]23)OCO4)cc(OC)c1O [ETOPOSIDE]
 | 10.2 | 14.2 |  | O=c1c2cc(Cl)ccc2sc2c(N3CCC(N4CCCCC4)CC3)nc3ccccc3c12
 | > 15 | > 15 |  | O=c1c2cc(Cl)ccc2sc2c(N3CCSCC3)nc3ccccc3c12

SMILES | inhibition [1] | IC50 (DU-145) [µM] | IC50 (PC-3) [µM] | inhibition [2]
CC[C@@]1(O)C(=O)OCc2c1cc1n(c2=O)Cc2cc3ccccc3nc2-1 [CAMPTOTHECIN] |  | 0.1 | 0.1 | 
